Reference: US12624057B2, “Bisphosphonate quinolone conjugates and uses thereof” (BIOVINC, LLC, priority 2016, dated 2026)

Key:
S. aureus 6538 = assay: Preventative assay, HA spherules pretreated then inoculated with S. aureus; type: cell-based, Staphylococcus aureus
Experimental: Preventative ability of BP-ciprofloxacin conjugate to inhibit S. aureus 6538 adherence to HA spherules: Various BP-ciprofloxacin concentrations were introduced to HA powder (spherules) suspended in TSB microbiological medium. Solutions containing conjugate and HA spherules were introduced to wells of 24-well plates. Final concentrations of powder were 10 mg/1 mL, while final concentrations of the conjugate were 0.12-250 mg/L. Suspensions were left for 24 h/37° C./shaking. After 24 h, suspensions were removed from the wells and impulse-centrifuged to precipitate HA powder. Next, supernatant was very gently discarded and a fresh 1 mL of S. aureus of density 10^5 cfu/mL was introduced to the HA spherules. Subsequently, this solution was shaken, absorbance was measured using 580 nm wavelength and left for 24 h/37° C./shaking. After incubation absorbance was measured again and values from 0 hr and 24 hrs were compared to assess reduction of bacterial growth with regard to control sample one (bacterial suspension but no spherules) and control sample two (bacterial suspension+spherules but with no conjugate added). Additionally, solutions were impulse-centrifuged, supernatant was gently discarded, while bacteria-containing HA spherules were culture plated as before and quantitatively assessed. […]

[1] = system: S. aureus strain ATCC-6538 (MSSA) and clinical MRSA strain MR4-CIPS; assay: Time-kill assay (CLSI); type: cell-based, Staphylococcus aureus; settings: for time-kill profile (in words): 1× and ½× MIC, 24 hrs
Experimental: Time-kill assay for BP-ciprofloxacin conjugate against S. aureus strain ATCC-6538 (MSSA) and clinical MRSA strain MR4-CIPS: This experiment was performed in the same manner as described previously under the subheading: “Evaluation of MIC of tested compounds against planktonic forms of clinical staphylococcal strains analyzed”, but absorbance assays (at 580 nm wavelength) were taken in hour: 0, 1, 2, 4, 8, 16, 24.

[2] = 24 h
Experimental: Next, solutions were left for 24 h/37° C./shaking. After incubation, absorbance was measured once again. To assess for degradation of conjugate, values of absorbance taken at 0 hr and 24 hrs were compared.

Row | Structure (SMILES) | concentration giving the only significant reduction (S. aureus 6538) | time-kill profile (in words) [1] | time-kill profile (in words) ([1]; listed as BP-ciprofloxacin) | time to bactericidal activity / evident prevention of growth ([1]; at half the MIC) | growth inhibition ([1]; at half the MIC, up to/after 24 hrs, versus controls) | time to bactericidal activity / evident prevention of growth ([1]; at half the MIC, listed as conjugate) | time to bactericidal activity ([1]; at the established MIC) | prevention of bacterial growth ([1]; at the established MIC, up to 24 hrs) | stability in trypticase soy broth microbiological media [2]
1 | O=C(O)c1cn(C2CC2)c2cc(N3CCNCC3)c(F)cc2c1=O [ciprofloxacin, reference compound] | 400 µg/mL |  |  |  |  |  |  |  | 
2 | O=C(O)c1cn(C2CC2)c2cc(N3CCN(C(=O)Oc4ccc(CC(P(=O)(O)O)P(=O)(O)O)cc4)CC3)c(F)cc2c1=O [Compound 6, 1-cyclopropyl-7-(4-((4-(2,2-diphosphonoethyl)phenoxy)carbonyl)piperazin-1-yl)-6-fluoro-4-oxo-1,4-dihydroquinoline-3-carboxylic acid] |  | sustained bactericidal activity over 24 hrs | strong bactericidal activity at 1 hr and up to 24 hrs | 2 h | 50% | ≤ 1 h | ≤ 1 h | 100% | no degradation is observed after 24 hrs
